{"source": "patent EP4700120A1", "about": "“NOVEL P[…] DON-DEGRADING ACTIVITY” (CJ Cheiljedang Corporation, priority 2023, dated 2024)", "system": "IPEC-J2 cells", "experiment": "Cytotoxicity of DON degradation products, WST assay cell viability", "type": "cell-based", "conditions": "for Cell Viability (%): 24 hours", "protocol": "A DMEM/F-12 medium supplemented with 10% FBS and 1% penicillin-streptomycin was added to a T75 flask, and the IPEC-J2 cell line was subcultured in the flask at 37°C and under 5% CO2. For cytotoxicity evaluation, the cultured cells were seeded in 96-well plates containing DMEM/F-12 with 10% FBS to 3×10^4 cells/100 µL, and the cells were incubated for 24 hour under the above conditions. Thereafter, the existing medium was removed, and the three samples in Table 4 were each applied to the cells so as to final concentrations of 2 µM, 1 µM, and 0.5 µM (based on the substrate concentration before the reaction), followed by additional incubation at 37°C in a CO2 incubator for 24 hours. After incubation, the existing substances were removed, and the cells were washed once with DMEM/F-12 and treated with a WST assay reagent (EZ-Cytox kit, DoGenBio) together with the medium. After 2 hours, absorbance at 450 nm was measured to determine cell viability of IPEC-J2 cells."}
{"smiles": "CC1=C[C@H]2O[C@@H]3[C@H](O)C[C@](C)([C@@]2(CO)[C@H](O)C1=O)[C@]31CO1", "note": "[DON Control, deoxynivalenol]", "values": [{"measurement": "cell viability", "setting": "IPEC-J2, 0.5 µM to 2 µM", "value": "approximately 65%"}, {"measurement": "Cell Viability (%)", "setting": "IPEC-J2, sample concentration 0.5 µM (substrate concentration before the reaction)", "value": 79.0, "unit": "%"}, {"measurement": "Cell Viability (%)", "setting": "IPEC-J2, sample concentration 1 µM (substrate concentration before the reaction)", "value": 71.4, "unit": "%"}, {"measurement": "Cell Viability (%)", "setting": "IPEC-J2, sample concentration 2 µM (substrate concentration before the reaction)", "value": 64.6, "unit": "%"}]}
